From patent US11919886B2, “4,9-dioxo-4,9-dihydronaphtho[2,3-B]furan-3-carboxamide derivatives and uses thereof for treating proliferative diseases and infectious diseases” (Academia Sinica, priority 2016, dated 2024)

Tests used:
H1975 cell line = assay: Sulforhodamine B colorimetric (SRB) assay, H1975; details: Homo sapiens, NCI-H1975, 72 h, H1975 cell line, SRB assay, 72 hours
[1] = test system: Breast Cancer Cells (MCF); assay: Cell viability by Cell-TiterGlo; assay type: cell-based; details: Homo sapiens, 48 h, two days, read-out: % of the activities in the presence of ~10 μM compound, Breast Cancer Cells (MCF)
Method: (§1) Compound 1 and its analogues shown in Table 6 below were tested for their activities on cancer cells and bacterial cells using assays described herein. H1975, MDA-MB231, and MCF7 cells were incubated in the presence of the compounds in cell growth medium containing 10% fetal bovine serum for two days in a mammalian cell culture incubatoe. Cell viability were monitored by using Cell-TiterGlo. Staphylococcus aureus and Escherichia coli were incubated in the presence of the compounds in Muller-Hinton broth for 16-24 hours in a 37° C. incubator. Bacterial growth was monitored by using Alamar Blue (Invitrogen).

[2] = test system: Breast Cancer Cells (MDA-MB231); assay: Cell viability by Cell-TiterGlo; assay type: cell-based; details: Homo sapiens, MDA-MB-231, 48 h, two days, read-out: % of the activities in the presence of ~10 μM compound, Breast Cancer Cells (MDA-MB231)
Method: as §1

[3] = test system: Lung Cancer Cells (H1975); assay: Cell viability by Cell-TiterGlo; assay type: cell-based; details: Homo sapiens, NCI-H1975, 48 h, two days, read-out: % of the activities in the presence of ~10 μM compound, Lung Cancer Cells (H1975)
Method: as §1

Escherichia coli = assay: Bacterial growth by Alamar Blue in Muller-Hinton broth; assay type: cell-based; details: 16-24 hours, read-out: % of the activities in the presence of ~10 μM compound, Escherichia coli
Method: as §1

Staphylococcus aureus = assay: as above; assay type: cell-based; details: ~10 μM, 16-24 hours, Alamar Blue, read-out: % of the activities in the presence of ~10 μM compound, Staphylococcus aureus
Method: as §1

| SMILES | IC50 (H1975 cell line) [nM] | melting point [°C] | viability at 10 µM [1] [%] | viability at 10 µM [2] [%] | viability at 10 µM [3] [%] | activity at 10 µM (Escherichia coli) [%] | activity at 10 µM (Staphylococcus aureus) [%] |
| --- | --- | --- | --- | --- | --- | --- | --- |
| Cc1oc2c(c1C(=O)NCCn1ccnc1)C(=O)c1ccccc1C2=O [Compound 5, N-(2-(1H-imidazol-1-yl)ethyl)-2-methyl-4,9-dioxo-4,9-dihydronaphtho [2,3-b]furan-3-carboxamide] | 280 |  |  |  |  |  |  |
| O=C1c2ccccc2C(=O)c2c1oc(-c1ccccc1)c2C(=O)NCCCn1ccnc1 [Compound 9, N-(3-(1H-imidazol-1-yl)propyl)-4,9-dioxo-2-phenyl-4,9-dihydronaphtho[2,3-b]furan-3-carboxamide] | 826 |  |  |  |  |  |  |
| CC(C)c1oc2c(c1C(=O)NCCCn1ccnc1)C(=O)c1ccccc1C2=O [Compound 10, N-(3-(1H-imidazol-1-yl)propyl)-2-isopropyl-4,9-dioxo-4,9-dihydronaphtho[2,3-b]furan-3-carboxamide] | 260 |  |  |  |  |  |  |
| CCc1oc2c(c1C(=O)NCCCn1ccnc1)C(=O)c1ccccc1C2=O [Compound 11, N-(3-(1H-imidazol-1-yl)propyl)-2-ethyl-4,9-dioxo-4,9-dihydronaphtho[2,3-b]furan-3-carboxamide] | 288 |  |  |  |  |  |  |
| Cc1oc2c(c1C(=O)NCCCn1cccc1)C(=O)c1ccccc1C2=O [Compound 12, N-(3-(1H-pyrrol-1-yl)propyl)-2-methyl-4,9-dioxo-4,9-dihydronaphtho[2,3-b]furan-3-carboxamide] | 918 | 143.5 to 150.7 |  |  |  |  |  |
| Cc1oc2c(c1C(=O)NCCCCn1ccnc1)C(=O)c1ccccc1C2=O [Compound 13, N-(4-(1H-imidazol-1-yl)butyl)-2-methyl-4,9-dioxo-4,9-dihydronaphtho[2,3-b]furan-3-carboxamide] | 250 | 158.6 to 164.1 |  |  |  |  |  |
| Cc1oc2c(c1C(=O)NCCCCc1ccccc1)C(=O)c1ccccc1C2=O [Compound 17, 2-Methyl-4,9-dioxo-N-(4-phenylbutyl)-4,9-dihydronaphtho[2,3-b]furan-3-carboxamide] | > 10000 | 151.4 to 152.7 |  |  |  |  |  |
| Cc1oc2c(c1C(=O)NCCCN1CCCC1)C(=O)c1ccccc1C2=O [Compound 18, 2-Methyl-4,9-dioxo-N-(3-(pyrrolidin-1-yl)propyl)-4,9-dihydronaphtho[2,3-b]furan-3-carboxamide] | 24 |  |  |  |  |  |  |
| Cc1oc2c(c1C(=O)NCCCN1CCOCC1)C(=O)c1ccccc1C2=O [Compound 20, 2-Methyl-N-(3-morpholinopropyl)-4,9-dioxo-4,9-dihydronaphtho[2,3-b]furan-3-carboxamide] | 80 |  |  |  |  |  |  |
| Cc1[nH]c2c(c1C(=O)NCCCn1ccnc1)C(=O)c1ccccc1C2=O [Compound 45, N-(3-(1H-imidazol-1-yl)propyl)-2-methyl-4,9-dioxo-4,9-dihydro-1H-benzo[f]indole-3-carboxamide] | 8730 |  |  |  |  |  |  |
| O=C(NCCN1CCOCC1)c1coc2c1C(=O)c1ccccc1C2=O [Compound 00053891400] |  |  | 6.1 | 12.2 | 4 | > 100 | > 100 |
| Cc1oc2c(c1C(=O)N1CCC(C)CC1)C(=O)c1ccccc1C2=O [Compound 00054506228] |  |  | 13.6 | 54.4 | 4.6 | > 100 | 65.4 |
| COCCNC(=O)c1c(C)oc2c1C(=O)c1ccccc1C2=O [Compound 00054811255] |  |  | 6.5 | 13.4 | 4.2 | > 100 | > 100 |
| Cc1oc2c(c1C(=O)NC(C)(C)C)C(=O)c1ccccc1C2=O [Compound 00055422098] |  |  | 35 | 69.8 | 3.7 | > 100 | > 100 |
| CCCCNC(=O)c1c(C)oc2c1C(=O)c1ccccc1C2=O [Compound 00055422996] |  |  | 6.9 | 20.9 | 4.3 | > 100 | > 100 |
| Cc1oc2c(c1C(=O)NCCC(C)C)C(=O)c1ccccc1C2=O [Compound 00055727872] |  |  | 44.3 | 72 | 4.2 | > 100 | > 100 |
| Cc1oc2c(c1C(=O)N1CCOCC1)C(=O)c1ccccc1C2=O [Compound 00056034607] |  |  | 12.9 | 61.2 | 4.4 | > 100 | 75.8 |
